Measurements reported in US12616667B2, “Compositions and methods for improving neurological diseases and disorders” (CURASEN THERAPEUTICS, INC., priority 2021, dated 2026).
“Also recorded” adds a separate entry of the source.

How the values were obtained:
healthy subjects [1] = assay: Heart rate by triplicate ECG after Compound 03-5 with or without nadolol; format: in vivo, human; conditions: 6 mg Compound 03-5 with pre-administration of 1 mg nadolol
Procedure: FIGS. 11A-11B show the effects of Compound 03-5 monotherapy (6 mg) on heart rate (FIG. 11A) and administered 2 hours after nadolol (1-40 mg) (FIG. 11B). Heart rate was measured by triplicate ECG recordings. Data are presented as means changes from time-matched measures recorded on the day before the first dose of study drug (Day −1).
Healthy volunteers were be enrolled into 2 cohorts in a study to undertake within-subject dose titration of Compound 03-5 and/or nadolol in order to explore doses/dose combinations that mitigate peripheral effects of Compound 03-5, e.g. on heart rate, while preserving possible central effects of Compound 03-5 on cerebral perfusion and pupillary light reflex.
Cohort D1 enrolled 8 healthy subjects and undertook an evaluation of the effects of treatment on ECG following repeat dosing of Compound 03-5 in the presence of escalating doses of nadolol according to following schematic.
Eight healthy subjects aged 18-50 years were enrolled into Cohort D1 and received escalating doses of Compound 03-5 (3-12 mg) administered once daily 2 hours follow pre-administration of nadolol (1-40 mg). On all dosing days, study drug(s) were administered orally after an overnight fast of at least 8 hours. […]

healthy subjects [2] = assay: Peripheral effects of Compound 03-5 (glucose, potassium, tachycardia, tremor, palpitations) with nadolol; format: in vivo, human
Procedure: Data are presented as individual observations for all available subjects.
Eight healthy subjects aged 18-50 years were enrolled into Cohort D1 and received escalating doses of Compound 03-5 (3-12 mg) administered once daily 2 hours follow pre-administration of nadolol (1-40 mg). On all dosing days, study drug(s) were administered orally after an overnight fast of at least 8 hours.
Routine measures of ECG, vital signs, safety labs, physical exams and plasma sample collections for analysis of drug pharmacokinetics (PK) were undertaken according to the Schedule of Events (Table 1).
(§1) In Cohort D2, 8 healthy volunteers aged 55-75 years were admitted on Day −1 for a 5-day confinement period at the research facility. During this confinement, subjects received escalating doses of open label Compound 03-5 (1-10 mg) once-daily from Day 1 through Day 3 2 hours after pre-administration of open-label nadolol (3 mg) one each for the 3 dosing days according to the following schematic. Subjects remained in-residency until all study procedures are completed on Day 4.

[3] = system: healthy volunteers aged 55-75 years; assay: CANTAB cognition battery, Cohort D2; format: in vivo, human; conditions: Compound 03-5 1, 3, 10 mg on Days 1-3, 2 hours after nadolol 3 mg
Procedure: CANTAB data from healthy adults 55-75 years of age (N=4) who received once-daily 3 mg nadolol and Compound 03-5 (1, 3, and 10 mg) on Day1, Day 2 and Day 3. […] Data are presented as mean changes from the within-day pre-dose assessment.
as §1
? Compound 03-5 dose administration. Compound 03-5 was administered as escalating doses on Day 1 (1 mg), Day 2 (3 mg) and Day 3 (10 mg). CANTAB was conducted twice in all subjects on the day prior to start of dosing (Day −1) to familiarize subjects with the platform, and prior to dosing and approximately 3 hours after Compound 03-5 administration on Days 1, 2, and 3.

Ts65Dn mice = conditions: increasing brain NE levels; cited from earlier work
healthy subjects [4] = assay: Adaptive tracking test (visuomotor coordination and vigilance); format: in vivo, human; conditions: single dose 160 μg clenbuterol
Source text: Adaptive tracking measures visuomotor coordination and vigilance. In this test, the subject uses a joystick to move a small dot so that it stays within a continuously moving circle on a computer screen (Boland 1984). During the test, the speed of the circle is adjusted in response to the subject's ability to keep the dot in the circle, ensuring that the test is adapted to the individual subject. […] The improvement shown by subjects is in the same range as that seen with subjects treated with the acetylcholinesterase inhibitor donepezil, which is in clinical use for the treatment of mild to moderate AD (Groeneveld 2016).

subjects = assay: Visual verbal learning test (VVLT); format: in vivo, human; conditions: for effect on VVLT performance: crossover study, 3 agents plus placebo
Procedure: Subjects are presented 30 words on a screen, one at a time, for 1 second with a 1-second interval between words over a total of 1 minute. This is repeated in 3 trials. After each trial, subjects are asked to recall as many words as they can. After the third trial, there is a delay of 2.5 hours and subjects are then tested once for delayed recall. […] Since this was a crossover study, everyone who completed Part A was dosed with the 3 agents plus placebo.

patients = assay: Cerebral blood flow relative to baseline after a single dose (Example 1); format: in vivo, human
healthy subjects [5] = assay: ASL MRI cerebral perfusion before and after a single dose (Example 3); format: in vivo, human
Procedure: In a clinical study, healthy subjects were administered doses of clenbuterol ranging from 20 to 160 μg and ASL MRI was conducted prior to and after dosing with an objective to ascertain whether this neuroimaging method enables the detection of a clinically relevant CNS signal.
In a region of interest (ROI) analysis focusing on the hippocampus, which is well understood to be affected in neurodegenerative disorders, a single dose of 80 μg of clenbuterol causes a robust increase in perfusion (see FIG. 7). […] Taken together with other cohorts in which ASL MRI was conducted, a clear dose response relationship is seen between dose of clenbuterol and cerebral perfusion (FIG. 8). […] Our hypothesis is that by improving cerebral perfusion, particularly in areas of the brain that are relevant for symptoms that are commonly found in neurodegenerative diseases such as PD and AD, the administration of a β-AR agonist (such as a β-agent) will have a positive effect on clinically relevant symptoms such as memory and cognition.

[6] = doses of 80 and 160 μg clenbuterol

SMILES: CC(C)(C)NC[C@H](O)c1cccc(C#N)n1 [Compound 03-5, (S)-6-(2-(tert-butylamino)-1-hydroxyethyl)picolinonitrile]
- mean maximum increase in heart rate (healthy subjects [1]): 7 beats per minute
- hypokalemia (blood potassium levels) (healthy subjects [2]; Compound 03-5 monotherapy 0.3 mg-6 mg, Cohorts A1-A5): Dose-dependent increases in hypokalemia
- performance in the CANTAB cognition battery [3]: improvements in cognition; also recorded: improvements in performance

SMILES: N[C@H](C(=O)O)[C@H](O)c1ccc(O)c(O)c1 [L-DOPS, L-threo-3,4-dihydroxyphenylserine]
- contextual learning (Ts65Dn mice): restored contextual learning

SMILES: CC(C)(C)NCC(O)c1cc(Cl)c(N)c(Cl)c1 (stereo not shown) [clenbuterol]
- performance in adaptive tracking (percent time dot kept within moving circle) (healthy subjects [4]): improved adaptive tracking; also recorded: improves
- cognition as measured by adaptive tracking and word recall (healthy subjects [4]; healthy subjects, preliminary data): improves cognition
- effect on VVLT performance (subjects): positive effects
- effect on VVLT performance (subjects; listed as Clenbuterol): improved performance
- VVLT improvement in correctly recalled words (subjects; immediate recall (Trial 1) and delayed recall, crossover study vs placebo): 1.5 to 2 correctly recalled words
- cerebral blood flow (CBF) relative to baseline (patients; single dose clenbuterol 160 μg): robust global increase; also recorded: positive increase
- cerebral blood flow (CBF) relative to baseline (patients; single dose clenbuterol 160 μg and nadolol 5 mg): robust global increase
- cerebral blood flow (CBF) relative to baseline (patients; single dose clenbuterol ranging from 30 to 160 μg, tracked over 3 days): robust global increase
- cerebral perfusion increase as measured by CBF (healthy subjects [5]; clenbuterol dose of 40 μg): minimal increase
- cerebral perfusion increase as measured by CBF (healthy subjects [5]; clenbuterol doses below 30 μg): do not produce significant cerebral perfusion increases
- improvements in perfusion in brain areas relevant to neuropathology of neurodegenerative disorders (healthy subjects [5]; [6]): ~25%
- increases in cerebral perfusion in hippocampus and thalamus (healthy subjects [5]; [6]): 20% to 25
- increase in hippocampal perfusion, average (healthy subjects [5]; single dose 80 μg clenbuterol, 6 healthy subjects aged 44-52, hippocampus ROI): 25%
- cerebral perfusion, change from baseline (healthy subjects [5]; single dose 160 μg clenbuterol, global, in particular hippocampus, thalamus, cortex): global increase in cerebral perfusion; also recorded: robust global increase

SMILES: CC(C)(C)NCC(O)COc1cccc2c1CC(O)C(O)C2 (stereo not shown) [nadolol]
- peripheral effects of Compound 03-5 on heart rate, glucose, potassium, tachycardia, tremor and palpitations (healthy subjects [2]; Cohort D1, pre-administered nadolol 1 mg up to 40 mg, Compound 03-5 3-12 mg): blocked the peripheral effects
- effects of Compound 03-5 to increase heart rate and other peripheral effects including hyper glycemia and hypokalemia (healthy subjects [2]; Cohort D1, pre-administration of 1 mg nadolol, Compound 03-5 orally up to 6 mg): substantially attenuated
- peripheral effects of Compound 03-5 on heart rate, etc. (healthy subjects [2]; Cohort D2, pre-administered nadolol 3 mg, Compound 03-5 1-10 mg): similarly blocked the peripheral effects
- effects of Compound 03-5 on blood glucose and potassium, tachycardia, tremor and palpitations (healthy subjects [2]; pre-administration of 1 mg nadolol): Concomitant attenuation
- hypokalemia caused by Compound 03-5 (blood potassium levels) (healthy subjects [2]; subjects dosed with nadolol 1-40 mg, Cohorts D1 and D2): attenuation of hypokalemia

SMILES: CC(C)NCC(O)COc1cccc2[nH]ccc12 (stereo not shown) [pindolol]
- effect on VVLT performance (subjects): detrimental effect

SMILES: CC(C)(C)NCC(O)c1ccc(O)c(CO)c1 (stereo not shown) [salbutamol]
- effect on VVLT performance (subjects): positive effects
